The results in this text go back to US4999424A, “GAR transformylase inhibitor” (The Pennsylvania State University, priority 1988, dated 1991).

The test addresses T1, GAR TFase (L1210) (Mus musculus, UniProt Q64737).
T1 construct: GAR TFase activity is the C-terminal domain of trifunctional Gart
T1 sequence (Q64737 2-1010): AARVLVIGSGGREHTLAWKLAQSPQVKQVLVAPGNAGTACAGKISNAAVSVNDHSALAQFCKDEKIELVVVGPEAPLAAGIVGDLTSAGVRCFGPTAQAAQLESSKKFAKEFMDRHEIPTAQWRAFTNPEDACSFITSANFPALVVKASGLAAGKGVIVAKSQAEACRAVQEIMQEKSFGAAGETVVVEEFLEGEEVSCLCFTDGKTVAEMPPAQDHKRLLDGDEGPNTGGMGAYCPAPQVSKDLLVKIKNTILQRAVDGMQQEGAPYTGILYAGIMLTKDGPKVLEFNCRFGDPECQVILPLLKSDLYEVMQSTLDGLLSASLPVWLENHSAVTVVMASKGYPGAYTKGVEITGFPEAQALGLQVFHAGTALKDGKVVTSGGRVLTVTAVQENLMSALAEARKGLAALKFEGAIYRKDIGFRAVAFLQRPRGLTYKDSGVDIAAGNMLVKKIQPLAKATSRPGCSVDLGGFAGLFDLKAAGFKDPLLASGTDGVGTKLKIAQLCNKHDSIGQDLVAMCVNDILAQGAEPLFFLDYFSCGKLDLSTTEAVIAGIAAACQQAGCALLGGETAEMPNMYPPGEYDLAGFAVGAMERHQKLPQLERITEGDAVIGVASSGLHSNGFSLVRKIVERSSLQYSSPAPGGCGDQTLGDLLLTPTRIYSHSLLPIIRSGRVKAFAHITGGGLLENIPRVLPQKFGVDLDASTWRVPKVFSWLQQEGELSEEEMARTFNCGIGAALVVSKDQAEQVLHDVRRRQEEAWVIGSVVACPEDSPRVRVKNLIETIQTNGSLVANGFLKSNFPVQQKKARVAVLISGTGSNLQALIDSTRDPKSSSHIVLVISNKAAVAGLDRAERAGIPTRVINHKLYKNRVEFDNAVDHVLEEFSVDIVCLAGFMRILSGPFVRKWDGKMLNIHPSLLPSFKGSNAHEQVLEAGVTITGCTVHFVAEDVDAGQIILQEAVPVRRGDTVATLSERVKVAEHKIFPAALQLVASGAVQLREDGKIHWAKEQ
Put plainly: L1210 GAR TFase inhibition. Format: biochemical. The settings on record: for Mode of inhibition: L1210 GAR TFase. The method, then: All assays were carried out by following the increase of 5,8-dideazafolate absorbence at 295 nm in buffered medium at 26° C. To initiate the reaction, enzyme (1 nM final concentration) was added to a mixture of saturating substrates and variable amounts of inhibitor. […] See, Morrison, Trends Biochem. Sc., 7, 102 (1982) and Morrison, et al., Adv. Enzymology, Relat. Areas Mol. Biol., 57, 201-301 (1987).
The specificity of beta-TGDDF for GAR TFase from species other than E. coli was assayed in a general manner by measuring the activity of GAR TFase at a concentration of 1 nM from avian, HeLa, and L121? sources in the presence of 20 nM beta-TGDDF.
This test, was conducted using the same [I]/[E]ratios as stated previously.
E. coli GAR TFase was prepared and purified as described below. L1210 and HeLa GAR TFase were purified according to published procedures. AICAR TFase was prepared according to published procedures.

`Nc1nc2ccc(CN(C(=O)CSCC(=O)N[C@@H]3O[C@H](COP(=O)(O)O)[C@@H](O)[C@H]3O)c3ccc(C(=O)N[C@@H](CCC(=O)O)C(=O)O)cc3)cc2c(=O)[nH]1` [beta-TGDDF, N^10-[5'-phosphoribosyl-1'-β-amino-carbonylmethyl-1-thioacetyl]-5,8-dideazafolate]: the Mode of inhibition entry is reported as “inhibition of a slow, tight binding nature”. Where the note is “20 nM beta-TGDDF, 1 nM enzyme”, the Extent of inhibition result was “inhibited by roughly the same magnitude”. Besides, the Mode of inhibition result (listed as Beta-TGDDF) was “slow, tight-binding inhibitor”.
